Experimental data: paper PMC12060211, “Development of Efficient Covalent Inactivators of a Fungal Aspartate Semialdehyde Dehydrogenase” (Drug Development Research, 2025)

What follows are compounds tested against T1, CalASADH (C. albicans ASADH, aspartate semialdehyde dehydrogenase) (Candida albicans, UniProt Q5ALM0) (assay: time-dependent inactivation, NADPH formation at […] nm, kobs = kinact[I]/(Ki+[I])). Settings: covalent; irreversible inactivation; residual activity read at pH 8.6 with 0.3 mM L-aspartate-beta-semialdehyde, 20 mM phosphate, 1.5 mM NADP.
T1 construct: gene HOM2; catalytic Cys-156; PDB 3hsk used as docking model of the same protein; ATCC 10231 is only the growth-test strain
T1 sequence (Q5ALM0 1-365): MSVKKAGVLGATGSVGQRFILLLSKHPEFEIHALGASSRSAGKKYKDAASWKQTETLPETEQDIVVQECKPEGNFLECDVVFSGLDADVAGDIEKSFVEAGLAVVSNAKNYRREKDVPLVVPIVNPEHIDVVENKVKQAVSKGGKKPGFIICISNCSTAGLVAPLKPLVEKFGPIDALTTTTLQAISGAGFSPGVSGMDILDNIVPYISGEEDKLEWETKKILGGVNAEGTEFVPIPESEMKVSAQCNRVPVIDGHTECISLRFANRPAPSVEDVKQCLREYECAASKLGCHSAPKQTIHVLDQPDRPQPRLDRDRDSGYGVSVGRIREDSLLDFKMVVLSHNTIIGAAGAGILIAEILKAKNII
Assay type: biochemical
With CS(=O)(=O)/C=C/C(N)=O [compound 12, sulfonyl acrylamide, R1 methyl, R2 amide] the KI (inactivation) was 2700 ± 620 nM.
Compound CS(=O)(=O)CC(=O)c1ccncc1 [compound 20, sulfonyl ketone, R1 methyl, R2 4-pyridinyl] has a KI (inactivation) of 59000 ± 22000 nM.
CS(=O)(=O)/C=C/c1ccc(O)cc1 [compound 1, vinyl sulfone, R1 methyl, R2 1,4-phenol] gave a KI (inactivation) of 538000 ± 300000 nM.
O=S(=O)(/C=C/c1ccncc1)N1CCOCC1 [compound 11, vinyl sulfonamide, R1 2-morpholino, R2 4-pyridinyl] was tested, and the KI (inactivation) was 1170 ± 130 nM.
Compound CS(=O)(=O)CC(=O)c1cccnc1 [compound 21, sulfonyl ketone, R1 methyl, R2 3-pyridinyl] has a KI (inactivation) of 25900 ± 6600 nM.
N[C@@H](C/C=C/S(=O)(=O)Cc1ccccc1)C(=O)O [compound 16, vinyl sulfone, R1 benzyl, R2 alanyl] was tested, and the KI (inactivation) was 1800 ± 820 nM.
For O=S(=O)(/C=C/c1ccncc1)c1ccccn1 [compound 10, vinyl sulfone, R1 2-pyridinyl, R2 4-pyridinyl], the KI (inactivation) was 2200 ± 180 nM.
In the case of CS(=O)(=O)/C=C/c1ccc(C(N)=O)cc1 [compound 3, vinyl sulfone, R1 methyl, R2 benzamide], the KI (inactivation) is reported as 531000 ± 134000 nM.
CS(=O)(=O)/C=C/c1ccc([N+](=O)[O-])s1 [compound 5, vinyl sulfone, R1 methyl, R2 5-nitrothiophene] was tested, and the KI (inactivation) was 2100 ± 600 nM.
Compound N[C@@H](C/C=C/S(=O)(=O)C1CC1)C(=O)O [compound 18, vinyl sulfone, R1 cyclopropyl, R2 alanyl] has a KI (inactivation) of 390 ± 93 nM.
CS(=O)(=O)CC(=O)c1ccccc1 [compound 23, sulfonyl ketone, R1 methyl, R2 phenyl] gave a KI (inactivation) of 2200 ± 770 nM.
Work on NC(=O)/C=C/S(=O)(=O)c1ccccc1 [compound 13, sulfonyl acrylamide, R1 phenyl, R2 amide] yielded a KI (inactivation) of 2300 ± 320 nM.
With CN(C)S(=O)(=O)/C=C/C[C@H](N)C(=O)O [compound 15, vinyl sulfonamide, R1 dimethylamino, R2 alanyl] the KI (inactivation) was 27900 ± 4300 nM.
With CS(=O)(=O)CC(=O)c1ccccn1 [compound 22, sulfonyl ketone, R1 methyl, R2 2-pyridinyl] the KI (inactivation) was 6080 ± 760 nM.
CS(=O)(=O)/C=C/c1ccnc2ccccc12 [compound 6, vinyl sulfone, R1 methyl, R2 4-quinoline] gave a KI (inactivation) of 4400 ± 890 nM.
In the case of CS(=O)(=O)/C=C/c1ccc2ccccc2n1 [compound 7, vinyl sulfone, R1 methyl, R2 2-quinoline], the KI (inactivation) is reported as 960 ± 240 nM.
O=S(=O)(/C=C/c1cccc2cnccc12)C1CC1 [compound 9, vinyl sulfone, R1 cyclopropyl, R2 5-isoquinoline] showed a KI (inactivation) of 2480 ± 410 nM.
In the case of CC(=O)Nc1ccc(/C=C/S(C)(=O)=O)cc1 [compound 2, vinyl sulfone, R1 methyl, R2 acetanilide], the KI (inactivation) is reported as 203000 ± 83000 nM.
O=C(/C=C/c1ccncc1)N1CCOCC1 [compound 24, acrylamide, R1 morpholino, R2 4-pyridinyl] showed a KI (inactivation) of 4410 ± 850 nM.
Compound CS(=O)(=O)/C=C/c1ccc(O)cn1 [compound 4, vinyl sulfone, R1 methyl, R2 5-hydroxy-2-pyridine] has a KI (inactivation) of 610 ± 91 nM.
Work on CS(=O)(=O)/C=C/C[C@H](N)C(=O)O [compound 14, vinyl sulfone, R1 methyl, R2 alanyl] yielded a KI (inactivation) of 7600 ± 1200 nM.
CC(C)S(=O)(=O)/C=C/C[C@H](N)C(=O)O [compound 17, vinyl sulfone, R1 isopropyl, R2 alanyl] showed a KI (inactivation) of 760 ± 150 nM.
With CC(=O)CS(C)(=O)=O [compound 19, sulfonyl ketone, R1 methyl, R2 methyl] the KI (inactivation) was 31700 ± 4900 nM.
CS(=O)(=O)/C=C/c1cccc2cnccc12 [compound 8, vinyl sulfone, R1 methyl, R2 5-isoquinoline] showed a KI (inactivation) of 650 ± 110 nM.
For NC(=O)/C=C/c1ccncc1 [compound 25, acrylamide, R1 amino, R2 4-pyridinyl], the KI (inactivation) was 3790 ± 1600 nM.
